Consider three molecules from US20040221332A1, “Plant growth regulating genes, proteins and uses thereof” (priority 2001, published 2004).

Assay [1] has as its system protein synthesis. The settings on record: maize, 20 μM CHX; cited from earlier work.
The subject of another assay is OsGREP1 transcripts. Put plainly: RNA gel blot of OsGREP1 mRNA in deepwater rice internode sections treated with cycloheximide. Set-up: species or system Oryza sativa. As to the method:
(§1) Analysis of hormone and inhibitor effects was performed using excised stem segments containing the youngest growth-responsive internode (Raskin & Kende, 1984). Growth of the stem sections was induced by application of 50 μM GA3 for the times indicated. To inhibit protein synthesis, stem sections were incubated in aqueous solutions of cycloheximide for the times indicated. Plant tissue for RNA extraction was harvested on ice and immediately after harvest frozen in liquid nitrogen. Meristematic tissue was harvested from 0 to 5 mm above the second youngest node, i.e. the intercalary meristem (IM). Cells which are predominately involved in elongation were harvested from 5 to 15 mm above the second youngest node, i.e. the elongation zone (EZ) and differentiated tissue was harvested from the oldest part of the internode below the youngest node, i.e. the differentiation zone (DZ).
To determine gene expression under different conditions and in different rice tissues, mRNA abundance of OsGREP1 was analyzed by RNA gel blot hybridization. Total RNA was isolated using the TRIzol reagent (Gibco BRL) and precipitated with 4M LiCl as described (Puissant & Houdebine, 1990). […]
Gene expression of OsGREP1 was also determined by measuring mRNA abundance in IM sections of deepwater rice internodes treated with cycloheximide (CHX) at 0, 0.02, 2, and 20 μg/ml (FIG. 9). […]

The subject of assay [2] is protein synthesis. To be noted: alfalfa, 150 μM; cited from earlier work.
In assay [3] the test system is OsGREP1 transcript levels. Put plainly: RNA gel blot of OsGREP1 mRNA in deepwater rice stem sections treated with gibberellin. Also noted: species or system Oryza sativa. The settings on record: 50 μM GA3, stem sections, meristematic zone, within 30 minutes and again 15 h after onset. The protocol: as §1, with “Cells which are predominately involved in elongation were harvested from 5 to 15 mm above the second youngest node, i.e. the elongation zone (EZ) and differentiated tissue was harvested from the oldest part of the internode below the youngest node, i.e. the differentiation zone (DZ).” left out
To determine gene expression under different conditions and in different rice tissues, mRNA abundance of OsGREP1 was analyzed by RNA gel blot hybridization. […]
mRNA abundance of OsGREP1 was also analyzed in different tissues of adult rice plants and seedlings and in suspension-cultured rice cells by RNA gel blot analysis (FIG. 7). […] OsGREP1 mRNA can also be detected in suspension-cultured cells but at lower levels than in all other tissues. […] Stem sections containing the IM and EZ of the internode were treated with 50 μM GA3 and analyzed for expression of OsGREP1 by RNA gel blot hybridization 0, […], 1, 3, 6 and 15 h after treatment (FIG. 8).

For a further assay, the system named is Arabidopsis thaliana. Put plainly: Phenotypic characterization of transgenic plants transformed with OsPSK (digital imaging of rosette and inflorescence). The assay is classed as in vivo. The protocol: Of 11 different transgenic plant lines of Arabidopsis thaliana (named AE0017, AE0018, AE0019, AE0021, AE0022, AE0023, AE0024, AE0025, AE0026, AE0027 and Os-PSK) 500 mg of seeds is placed in 50 ml plastic tubes. 27 ml of a 0.2% agar solution is added and mixed to suspend the seeds. The said tubes are stored at 4° C. for 3 days to release dormancy. Subsequently, the suspension of seeds was evenly dispensed as drops of 50 μl on a 50 cm by 30 cm tray containing a mixture of sand and soil in a ratio of 1 to 2.
The trays were placed in the greenhouse under the following conditions: 22° C. at day time, 18° C. at night, 60% RH, 20 hours of photoperiod, subirrigation once a day with water during 15 min. The 4th day and the 10th day after sowing, the seedlings were sprayed with an herbicide solution. The 14th day after sowing, 30 resistant seedlings of each transgenic line were transplanted in individual pots with a diameter of 10 cm containing a mixture of sand and peat in a ratio of 1 to 3.
Said pots are then placed in the greenhouse under the same conditions as described for the trays. The pots are subirrigated during 15 min. once a week, or more if needed. The 14th, 18th, 21st, 28th, 32nd and 39th day after sowing, the rosettes of each plant were photographed using a digital camera and the pictures were stored for further analysis.
The 32nd, 38th, 41 st, 46th, 49th, and 53rd day after sowing, the inflorescence of each plant was photographed equally using a digital camera and the pictures were stored for further analysis. The number of pixels corresponding to plant tissues was recorded on each picture, converted to square cm and used as a measurement of plant size.

Read-outs that look alike come from different tables or passages of the source. Bounds are passed on as bounds.

In the case of `C[C@@H]1C[C@@H]([C@H](O)CC2CC(=O)NC(=O)C2)C(=O)[C@@H](C)C1` [cycloheximide], the “inhibition of protein synthesis” value is on record as 23% in the assay on protein synthesis [1] and 90% in the assay on protein synthesis [2]. In addition, the OsGREP1 transcripts result in the assay with OsGREP1 transcripts (IM sections of deepwater rice internodes, 20 μg/ml (corresponds to 70 μM) CHX) is given as “induced”. Further, the “cycloheximide concentration at which OsGREP1 transcripts accumulate” value in the assay with OsGREP1 transcripts (stem sections of deepwater rice, 0 to 20 μg/ml tested) is at least 0.2 µg/mL.

Turning to `C=C1C[C@]23C[C@@]1(O)CC[C@H]2[C@@]12C=C[C@H](O)[C@@](C)(C(=O)O1)[C@H]2[C@@H]3C(=O)O` [GA3, gibberellic acid], the OsGREP1 transcript levels entry in assay [3] is “slight and transient increase”; in assay [3] (listed as GA), “induced”.

B1: OsPSK: rice growth regulating polypeptide, prepro-phytosulfokine (SEQ ID NO 104/105), overexpressed in transgenic Arabidopsis under sunflower ubiquitin promoter (protein, listed as Oryza sativa)
chain: MVNPGRTARALCLLCLALLLLGQDTHSRKLLLQEKHSHGVGNGTTTTQEPSRENGGSTGSNNNGQLQFDSAKWEEFHTDYIYTQDVKNP
In the case of B1, the “ratio between size of inflorescence before harvest and maximal measured size of the rosette” value with Arabidopsis thaliana (OsPSK plants vs other transgenic plant lines in the same experiment) is recorded as “significantly higher”. The rosette size entry in the assay with Arabidopsis thaliana (OsPSK transgenic line vs other transgenic lines) is reported as “slightly bigger”. For the same molecule, the plant size result in the assay with Arabidopsis thaliana (OsPSK transgenic line vs the other transgenic plant lines in the experiment) is given as “on average the biggest plants”.
